Results on 17 molecules are retold here after US10052320B2, “Substituted quinoxalines as FGFR kinase inhibitors” (ASTEX THERAPEUTICS LIMITED, priority 2011, dated 2018).

In experiment [1] the target is FGFR1 (h) (Homo sapiens, UniProt P11362). Kind of experiment: FGFR1 (enzymatic assay), TR-FRET. As to conditions: read-out: FGFR 1 pIC50 (converted). In kind it is biochemical. As for the experimental part:
In a final reaction volume of 30 μL, FGFR1 (h) (25 ng/ml) was incubated with 50 mM HEPES pH 7.5, 6 mM MnCl2, 1 mM DTT, 0.1 mM Na3VO4, 0.01% Triton-X-100, 500 nM Btn-Flt3 and 5 μM ATP in the presence of compound (1% DMSO final). […] Time-Resolved Fluorescence Resonance Energy Transfer (TR-FRET) signal (ex340 nm. Em 620 nm, em 655 nm) was measured afterwards and results are expressed in RFU (Relative Fluorescence Units).
For orientation: Time-resolved FRET reads energy transfer from a long-lived donor to a nearby acceptor.

The target of experiment [2] is FGFR3 (h) (Homo sapiens, UniProt P22607). The experiment in a line: FGFR3 (enzymatic assay), TR-FRET. The format is biochemical. Particulars: read-out: FGFR 3 pIC50 (converted). As for the experimental part: In a final reaction volume of 30 μL, FGFR3 (h) (40 ng/ml) was incubated with 50 mM HEPES pH 7.5, 6 mM MnCl2, 1 mM DTT, 0.1 mM Na3VO4, 0.01% Triton-X-100, 500 nM Btn-Flt3 and 25 μM ATP in the presence of compound (1% DMSO final). […] Time-Resolved Fluorescence Resonance Energy Transfer (TR-FRET) signal (ex340 nm. Em 620 nm, em 655 nm) was measured afterwards and results are expressed in RFU (Relative Fluorescence Units).

Experiment [3] addresses KDR (h) (VEGFR2) (Homo sapiens, UniProt P35968). The experiment in a line: KDR (VEGFR2) (enzymatic assay), TR-FRET. In kind it is biochemical. In a few lines: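 Phosphorylation of biotinylated Flt3 peptide (500 nM) by 150 ng/ml enzyme was measured at 3 μM ATP in Mn2+-containing HEPES buffer, pH 7.5, over 120 min at room temperature. Detection used Eu-anti-P-Tyr and SA-XL-665 TR-FRET.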

For experiment [4], the target named is Ba/F3-FGFR1-transfected cells (Homo sapiens, UniProt P11362). The experiment in a line: Ba/F3-FGFR1 (minus IL3) cellular proliferation assay, Alamar Blue. The format is cell-based. As to conditions: for BAF3-FGFR 1 (MIN IL3) 384 well pIC50: minus IL3, 384 well. Summed up: (§1)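 Compound dilutions in DMSO are combined with transfected cells in phenol red-free RPMI-1640 containing 10% FBS and L-glutamine. Plates incubate 24 h at 37 °C and 5% CO2. Viability is then scored by 4 h Alamar Blue conversion, read as fluorescence (540 nm excitation, 590 nm emission).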

Experiment [5] relates to Ba/F3-FGFR1-transfected cells in the presence of 10 ng/ml murine IL3. The experiment in a line: Ba/F3-FGFR1 (plus IL3) cellular proliferation counterscreen, Alamar Blue. In kind it is cell-based. As to conditions: Mus musculus. In a few lines: as §1
For experiment [6], the target named is Ba/F3-FGFR4-transfected cells (Homo sapiens, UniProt P22455). The experiment in a line: Ba/F3-FGFR4 cellular proliferation assay, Alamar Blue. In kind it is cell-based. Summed up: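 Alamar Blue fluorescence (540/590 nm, 4 h development) measured growth of FGFR4-transfected Ba/F3 cells after 24 h compound treatment at 37° C. Cells were seeded at 20000/well in RPMI-1640, 10% FBS.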
In general terms: The colour change of resazurin is a common sign of viable cells or microbes.

[7] abbreviates: plus IL3, 384 well, read-out: BAF3-FGFR 1 (PLUS IL3) 384 well pIC50 (converted).
Where [8] appears, read: plus IL3, 96 well, read-out: BAF3-FGFR 1 (PLUS IL3) 96 well pIC50 (converted).

Read-outs that look alike come from different tables or passages of the source.

Sequence of Ba/F3-FGFR1-transfected cells (P11362 whole entry, change not shown): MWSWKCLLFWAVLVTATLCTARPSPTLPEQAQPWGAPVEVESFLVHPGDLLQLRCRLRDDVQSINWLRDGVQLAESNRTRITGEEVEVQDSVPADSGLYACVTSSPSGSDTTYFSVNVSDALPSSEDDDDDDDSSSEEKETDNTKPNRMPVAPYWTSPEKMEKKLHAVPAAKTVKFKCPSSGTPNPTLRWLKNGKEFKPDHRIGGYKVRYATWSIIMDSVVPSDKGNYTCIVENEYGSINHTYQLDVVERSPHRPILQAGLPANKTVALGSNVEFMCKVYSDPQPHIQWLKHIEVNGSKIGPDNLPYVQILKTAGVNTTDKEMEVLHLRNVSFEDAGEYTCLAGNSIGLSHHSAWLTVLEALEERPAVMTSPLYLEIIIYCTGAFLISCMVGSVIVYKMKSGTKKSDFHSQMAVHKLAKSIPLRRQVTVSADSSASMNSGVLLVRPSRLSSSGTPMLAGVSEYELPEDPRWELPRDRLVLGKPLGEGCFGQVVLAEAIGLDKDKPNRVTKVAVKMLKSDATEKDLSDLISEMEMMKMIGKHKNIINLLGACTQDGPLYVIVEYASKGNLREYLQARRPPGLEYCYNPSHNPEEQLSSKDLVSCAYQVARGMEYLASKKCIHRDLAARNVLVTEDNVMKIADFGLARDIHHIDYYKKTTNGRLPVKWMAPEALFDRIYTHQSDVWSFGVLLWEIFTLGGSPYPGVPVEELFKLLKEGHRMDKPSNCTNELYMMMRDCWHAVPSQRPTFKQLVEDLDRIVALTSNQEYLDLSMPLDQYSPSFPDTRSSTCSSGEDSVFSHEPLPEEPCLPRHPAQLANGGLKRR
Sequence of FGFR3 (h) (P22607 23-806): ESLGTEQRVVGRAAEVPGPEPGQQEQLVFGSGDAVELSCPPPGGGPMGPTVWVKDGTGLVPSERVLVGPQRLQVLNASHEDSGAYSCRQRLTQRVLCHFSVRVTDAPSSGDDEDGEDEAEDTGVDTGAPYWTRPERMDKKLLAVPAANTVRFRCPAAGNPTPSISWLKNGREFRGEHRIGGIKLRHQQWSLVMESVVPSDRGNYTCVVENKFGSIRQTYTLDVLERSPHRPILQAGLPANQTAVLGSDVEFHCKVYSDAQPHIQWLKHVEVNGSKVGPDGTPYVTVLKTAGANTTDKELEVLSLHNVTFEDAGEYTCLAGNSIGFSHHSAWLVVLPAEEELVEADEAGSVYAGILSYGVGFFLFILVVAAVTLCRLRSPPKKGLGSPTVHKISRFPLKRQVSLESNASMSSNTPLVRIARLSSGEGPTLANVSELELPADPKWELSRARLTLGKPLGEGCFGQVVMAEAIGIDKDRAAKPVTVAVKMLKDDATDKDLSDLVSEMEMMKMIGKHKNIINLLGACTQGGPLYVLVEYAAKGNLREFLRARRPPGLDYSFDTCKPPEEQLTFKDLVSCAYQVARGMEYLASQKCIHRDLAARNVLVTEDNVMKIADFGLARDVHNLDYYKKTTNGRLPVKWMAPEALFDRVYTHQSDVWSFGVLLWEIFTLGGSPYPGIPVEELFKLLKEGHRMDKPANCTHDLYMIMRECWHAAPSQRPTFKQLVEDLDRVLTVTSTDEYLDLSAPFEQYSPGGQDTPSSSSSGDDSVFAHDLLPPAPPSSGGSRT
Sequence of KDR (h) (VEGFR2) (P35968 20-1356): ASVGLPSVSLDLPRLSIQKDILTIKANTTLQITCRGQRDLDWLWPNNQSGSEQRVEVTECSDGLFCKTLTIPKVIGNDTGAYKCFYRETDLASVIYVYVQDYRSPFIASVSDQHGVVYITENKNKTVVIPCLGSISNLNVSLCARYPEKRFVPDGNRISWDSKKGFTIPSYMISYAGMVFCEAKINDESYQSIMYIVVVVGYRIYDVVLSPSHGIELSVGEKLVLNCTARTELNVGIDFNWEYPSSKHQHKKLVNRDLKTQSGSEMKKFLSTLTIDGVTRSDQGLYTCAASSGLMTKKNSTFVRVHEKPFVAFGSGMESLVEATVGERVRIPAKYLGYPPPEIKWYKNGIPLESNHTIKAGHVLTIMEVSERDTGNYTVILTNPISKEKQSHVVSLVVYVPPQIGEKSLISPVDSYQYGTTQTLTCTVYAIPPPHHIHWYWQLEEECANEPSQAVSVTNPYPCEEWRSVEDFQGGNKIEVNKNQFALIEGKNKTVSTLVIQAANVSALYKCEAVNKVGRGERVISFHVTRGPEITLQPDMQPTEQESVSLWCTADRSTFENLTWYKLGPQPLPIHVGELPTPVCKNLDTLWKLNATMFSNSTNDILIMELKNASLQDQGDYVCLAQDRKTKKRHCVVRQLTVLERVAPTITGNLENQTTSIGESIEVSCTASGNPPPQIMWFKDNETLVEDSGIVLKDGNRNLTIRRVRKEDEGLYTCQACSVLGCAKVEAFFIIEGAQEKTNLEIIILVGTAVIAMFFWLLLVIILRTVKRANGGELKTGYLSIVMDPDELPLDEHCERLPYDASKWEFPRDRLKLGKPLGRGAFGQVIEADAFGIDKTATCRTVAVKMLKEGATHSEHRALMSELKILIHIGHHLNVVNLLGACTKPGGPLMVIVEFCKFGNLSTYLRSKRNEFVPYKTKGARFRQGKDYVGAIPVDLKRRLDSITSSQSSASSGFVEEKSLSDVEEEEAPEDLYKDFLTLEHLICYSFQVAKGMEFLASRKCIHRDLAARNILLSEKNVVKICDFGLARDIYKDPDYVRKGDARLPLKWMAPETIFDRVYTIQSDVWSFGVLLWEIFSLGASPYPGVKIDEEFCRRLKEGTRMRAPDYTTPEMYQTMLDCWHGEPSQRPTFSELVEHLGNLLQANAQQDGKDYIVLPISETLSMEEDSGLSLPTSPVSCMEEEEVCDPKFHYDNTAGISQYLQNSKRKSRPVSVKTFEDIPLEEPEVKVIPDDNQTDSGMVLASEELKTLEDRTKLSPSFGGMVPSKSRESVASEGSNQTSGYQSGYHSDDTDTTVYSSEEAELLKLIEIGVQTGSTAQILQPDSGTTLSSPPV
Sequence of Ba/F3-FGFR4-transfected cells (P22455 whole entry, change not shown): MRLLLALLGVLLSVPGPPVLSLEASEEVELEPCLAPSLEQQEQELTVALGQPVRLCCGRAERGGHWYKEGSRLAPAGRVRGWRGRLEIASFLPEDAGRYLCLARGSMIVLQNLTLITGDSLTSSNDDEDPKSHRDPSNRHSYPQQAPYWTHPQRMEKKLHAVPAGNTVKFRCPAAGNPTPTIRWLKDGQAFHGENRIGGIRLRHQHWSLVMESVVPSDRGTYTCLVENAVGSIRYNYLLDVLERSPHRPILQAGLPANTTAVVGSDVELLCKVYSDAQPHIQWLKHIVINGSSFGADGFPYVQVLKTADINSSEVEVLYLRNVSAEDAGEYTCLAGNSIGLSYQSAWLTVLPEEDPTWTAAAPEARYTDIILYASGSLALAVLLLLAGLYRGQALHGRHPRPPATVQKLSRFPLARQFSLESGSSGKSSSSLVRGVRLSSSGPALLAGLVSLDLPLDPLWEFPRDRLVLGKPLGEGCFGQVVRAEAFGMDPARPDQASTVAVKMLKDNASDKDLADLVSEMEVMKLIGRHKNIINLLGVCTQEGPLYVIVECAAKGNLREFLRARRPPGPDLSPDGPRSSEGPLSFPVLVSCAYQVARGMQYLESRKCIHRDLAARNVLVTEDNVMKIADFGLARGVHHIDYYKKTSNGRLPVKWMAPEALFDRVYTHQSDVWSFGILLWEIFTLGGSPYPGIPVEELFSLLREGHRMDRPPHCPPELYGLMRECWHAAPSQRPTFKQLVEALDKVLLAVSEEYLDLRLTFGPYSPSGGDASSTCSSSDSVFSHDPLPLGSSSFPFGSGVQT
Sequence of FGFR1 (h) (P11362 22-822): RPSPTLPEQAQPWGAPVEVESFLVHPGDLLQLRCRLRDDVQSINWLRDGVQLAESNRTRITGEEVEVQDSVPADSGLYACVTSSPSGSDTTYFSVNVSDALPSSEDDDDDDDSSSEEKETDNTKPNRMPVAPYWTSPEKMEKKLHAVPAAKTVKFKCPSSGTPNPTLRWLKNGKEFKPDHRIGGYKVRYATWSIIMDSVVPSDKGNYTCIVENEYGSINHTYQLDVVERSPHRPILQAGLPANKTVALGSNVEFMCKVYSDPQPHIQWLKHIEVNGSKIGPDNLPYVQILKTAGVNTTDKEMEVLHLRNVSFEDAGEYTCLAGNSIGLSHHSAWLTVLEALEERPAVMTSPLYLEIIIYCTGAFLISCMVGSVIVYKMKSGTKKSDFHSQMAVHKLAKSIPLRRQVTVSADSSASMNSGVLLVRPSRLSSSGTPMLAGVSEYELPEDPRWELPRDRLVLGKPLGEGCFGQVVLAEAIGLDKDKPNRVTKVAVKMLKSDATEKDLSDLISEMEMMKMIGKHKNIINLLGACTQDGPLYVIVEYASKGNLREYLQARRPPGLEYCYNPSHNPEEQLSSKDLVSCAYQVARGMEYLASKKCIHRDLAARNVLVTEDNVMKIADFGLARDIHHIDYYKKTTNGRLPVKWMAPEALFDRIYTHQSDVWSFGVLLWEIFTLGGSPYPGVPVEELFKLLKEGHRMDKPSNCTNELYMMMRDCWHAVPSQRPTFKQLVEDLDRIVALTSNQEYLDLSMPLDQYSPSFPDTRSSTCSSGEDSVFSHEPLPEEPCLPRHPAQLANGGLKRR

With `COc1cc(OC)cc(N(CC2CC2)c2ccc3ncc(N4CCN(C)CC4)nc3c2)c1` [Compound 64], the IC50 in experiment [1] was 437 nM; in experiment [2] it was 191 nM; in experiment [3], 5500 nM; in experiment [5] (setting [7]), above 10000 nM. In experiment [4], the “BAF3-FGFR 1 (MIN IL3) 384 well pIC50” value is reported as below 5. Moreover, the “BAF3-FGFR4 pIC50” value in experiment [6] (384 well) is below 5.
Regarding `COc1cc(OC)cc(N(CCCO)c2ccc3ncc(-c4ccnc(Cl)c4)nc3c2)c1` [Compound 136], the IC50 in experiment [1] was 24 nM; in experiment [2] it was 10.2 nM; in experiment [3] it was 776 nM; in experiment [5] (setting [7]), above 10000 nM. Moreover, in experiment [4], the “BAF3-FGFR 1 (MIN IL3) 384 well pIC50” value was determined as 5.63. In experiment [6], the “BAF3-FGFR4 pIC50” value is reported as below 5.
Turning to `COc1cc(OC)cc(N(CCN2CCNCC2)c2ccc3ncc(-c4ccc(N)nc4)nc3c2)c1` [Compound 59], the IC50 in experiment [1] is 3.63 nM; in experiment [2], 9.12 nM; in experiment [3] it was 45.7 nM; in experiment [5] (setting [7]), above 10000 nM. The “BAF3-FGFR 1 (MIN IL3) 384 well pIC50” value in experiment [4] is 6.22. Further, in experiment [6], the “BAF3-FGFR4 pIC50” value worked out at 6.1.
As for `COc1cc(OC)cc(N(CCCO)c2ccc3ncc(-c4ccnc(C(=O)NCCOCCO)c4)nc3c2)c1` [Compound 186], the IC50 in experiment [1] is 44.7 nM; in experiment [2] it was 16.2 nM; in experiment [3], 871 nM; in experiment [5] (setting [7]) it was above 10000 nM. For the same molecule, in experiment [4], the “BAF3-FGFR 1 (MIN IL3) 384 well pIC50” value is listed as 5.98. In addition, the “BAF3-FGFR4 pIC50” value in experiment [6] turned out to be 5.57.
Take `COC(=O)C1CCCN1c1cnc2ccc(N(CCO)c3cc(OC)cc(OC)c3)cc2n1` (stereo not drawn) [Compound 172]: the IC50 in experiment [1] is 107 nM; in experiment [2] it was 87.1 nM; in experiment [3], above 1000 nM; in experiment [5] (setting [7]), above 10000 nM. In experiment [4], the “BAF3-FGFR 1 (MIN IL3) 384 well pIC50” value came to 6.6. Moreover, the “BAF3-FGFR4 pIC50” value in experiment [6] came to 5.1.
Turning to `COc1cc(OC)cc(N(CCN2CCN(C(C)=O)CC2)c2ccc3ncc(-c4ccc(N)nc4)nc3c2)c1` [Compound 68], the IC50 is 25.7 nM in experiment [1], 33.9 nM in experiment [2], 229 nM in experiment [3] and above 10000 nM in experiment [5] (setting [7]). Further, the “BAF3-FGFR 1 (MIN IL3) 384 well pIC50” value in experiment [4] is 6.13. In experiment [6], the “BAF3-FGFR4 pIC50” value is 5.7.
Take `COc1cc(OC)cc(N(CCCNCC(F)(F)F)c2ccc3ncc(-c4cnc(OC)nc4)nc3c2)c1` [Compound 26]: the IC50 in experiment [1] is 112 nM; in experiment [2], 100 nM; in experiment [3], above 1000 nM; in experiment [5] (setting [7]), above 10000 nM. Also, the “BAF3-FGFR 1 (MIN IL3) 384 well pIC50” value in experiment [4] stood at 5.13. Also, in experiment [6], the “BAF3-FGFR4 pIC50” value is on record as around 5.1.
Take `COc1cc(OC)cc(N(CCNC(C)C)c2ccc3ncc(C(=O)N4CCCCC4)nc3c2)c1` [Compound 180]: the IC50 in experiment [1] is 229 nM; in experiment [2] it was 263 nM; in experiment [3] it was 191 nM; in experiment [5] (setting [7]) it was above 10000 nM. Also, in experiment [4], the “BAF3-FGFR 1 (MIN IL3) 384 well pIC50” value is given as 5.51. Besides, in experiment [6], the “BAF3-FGFR4 pIC50” value is reported as 5.2.
Consider `COc1cc(OC)cc(N(CC2CC2)c2ccc3ncc(-c4ccnc(N5CCN(C)CC5)c4)nc3c2)c1` [Compound 37], for which the IC50 was 30.2 nM in experiment [1]; 36.3 nM in experiment [2]; 1380 nM in experiment [3]; 7590 nM in experiment [5] (setting [8]); above 10000 nM in experiment [5] (setting [7]). The “BAF3-FGFR 1 (MIN IL3) 96 well pIC50” value in experiment [4] (minus IL3, 96 well) worked out at 5.4. Also, the “BAF3-FGFR 1 (MIN IL3) 384 well pIC50” value in experiment [4] is 5.16. The “BAF3-FGFR4 pIC50” value in experiment [6] (384 well) was found to be 5.3.
On to `COc1cc(OC)cc(N(CCCNCC(F)(F)F)c2ccc3ncc(C(=O)NCCN4CCOCC4)nc3c2)c1` [Compound 158], for which the IC50 in experiment [1] was 398 nM; in experiment [2], 537 nM; in experiment [3], above 1000 nM; in experiment [5] (setting [7]), above 10000 nM. Further, the “BAF3-FGFR 1 (MIN IL3) 384 well pIC50” value in experiment [4] is recorded as below 5. Further, the “BAF3-FGFR4 pIC50” value in experiment [6] is recorded as 5.1.
In the case of `COCC(O)CN(c1cc(OC)cc(OC)c1)c1ccc2ncc(-c3cccnc3)nc2c1` (single isomer, unassigned) [Compound 46], the IC50 in experiment [1] is 12.6 nM; in experiment [2], 7.24 nM; in experiment [3] it was 295 nM; in experiment [5] (setting [7]) it was above 10000 nM. The “BAF3-FGFR 1 (MIN IL3) 384 well pIC50” value in experiment [4] was found to be 6.49. For the same molecule, in experiment [6], the “BAF3-FGFR4 pIC50” value worked out at 5.8.
Regarding `COc1cc(OC)cc(N(CC2CC2)c2ccc3ncc(NC(=O)c4ccc(F)cc4)nc3c2)c1` [Compound 28], the IC50 was 2400 nM in experiment [1]; 1200 nM in experiment [2]; above 10000 nM in experiment [3]; above 10000 nM in experiment [5] (setting [8]); above 10000 nM in experiment [5] (setting [7]). In addition, the “BAF3-FGFR 1 (MIN IL3) 384 well pIC50” value in experiment [4] is on record as below 5. Moreover, the “BAF3-FGFR4 pIC50” value in experiment [6] was below 5.
Take `COc1cc(OC)cc(N(CCCNCC(F)(F)F)c2ccc3ncc(-c4ccnc(C(=O)NCCCCCO)c4)nc3c2)c1` [Compound 150]: the IC50 is 91.2 nM in experiment [1], 49 nM in experiment [2], 708 nM in experiment [3] and above 10000 nM in experiment [5] (setting [7]). Moreover, the “BAF3-FGFR 1 (MIN IL3) 384 well pIC50” value in experiment [4] is given as 5.16. Also, in experiment [6], the “BAF3-FGFR4 pIC50” value is listed as around 5.0.
`COc1cc(OC)cc(N(CCNC(C)C)c2ccc3ncc(-n4cnc(CO)c4)nc3c2)c1` [Compound 77]: the IC50 was 2.24 nM in experiment [1], 12 nM in experiment [2], 513 nM in experiment [3] and above 10000 nM in experiment [5] (setting [7]). Also, the “BAF3-FGFR 1 (MIN IL3) 384 well pIC50” value in experiment [4] was 7.12. Further, the “BAF3-FGFR4 pIC50” value in experiment [6] came out at 6.9.
As to `COc1cc(OC)cc(N(CCCNCC(F)(F)F)c2ccc3ncc(-c4ccn(C)c4)nc3c2)c1` [Compound 5], the IC50 is 6.92 nM in experiment [1], 9.55 nM in experiment [2], 126 nM in experiment [3] and above 10000 nM in experiment [5] (setting [7]). In addition, the “BAF3-FGFR 1 (MIN IL3) 384 well pIC50” value in experiment [4] is 5.99. Besides, in experiment [6], the “BAF3-FGFR4 pIC50” value came to 5.7.
`COc1cc(OC)cc(N(CCCO)c2ccc3ncc(-c4ccnc(-c5ccnc(Cl)c5)c4)nc3c2)c1` [Compound 133]: the IC50 in experiment [1] was 110 nM; in experiment [2], 50.1 nM; in experiment [3] it was above 1000 nM; in experiment [5] (setting [7]), above 10000 nM. Besides, the “BAF3-FGFR 1 (MIN IL3) 384 well pIC50” value in experiment [4] is listed as below 5. In experiment [6], the “BAF3-FGFR4 pIC50” value is reported as below 5.
As to `COc1cc(OC)cc(N(CCCO)c2ccc3ncc(-c4ccnc(C(=O)NCCCCCN)c4)nc3c2)c1` [Compound 130], the IC50 was 17.4 nM in experiment [1], 11.2 nM in experiment [2], 550 nM in experiment [3] and above 10000 nM in experiment [5] (setting [7]). In addition, the “BAF3-FGFR 1 (MIN IL3) 384 well pIC50” value in experiment [4] was 5.1. In addition, in experiment [6], the “BAF3-FGFR4 pIC50” value came to 5.0.
